According to patent US20110251128A1, “THYMOSIN Beta4 PEPTIDES PROMOTE TISSUE REGENERATION” (The Board of Regents of the University of Texas System, priority 2010, published 2011):

Assays:
[1] = test system: adult infarcted pigs; assay: Ischemia reperfusion (acute myocardial infarction) in pigs with retroinfusion of peptides; format: in vivo, pig
Method: Pigs: German pigs were purchased from the animal research department of the Ludwig-Maximilians-University (Oberschleissheim, Germany). Animal care and all experimental procedures were performed in accordance to the German and NIH animal legislation guidelines and were approved by the Bavarian Animal Care and Use Committee (AZ 55.2-1-54-2531-26/09). All animal experiments were conducted at the Walter Brendel Centre of Experimental Medicine, University of Munich.
Ischemia reperfusion experiments: Pigs (n=5/experimental group) were anesthetized and instrumented as described previously (Hinkel et al., 2008). Briefly, a balloon was placed in the left anterior descending artery (LAD) distal to the bifurcation of the first diagonal branch and inflated for 60 min. Correct localization of the coronary occlusion and patency of the first diagonal branch were ensured by injection fluoroscopy. Regional application of TB4 peptides or saline solution was performed via selective pressure regulated retroinfusion for 10 min into the anterior interventricular vein (AIV) draining the LAD-perfused myocardium (Kupatt et al., 2005).
Global myocardial function: At day 0 before ischemia induction and after 24 h of reperfusion myocardial function was obtained via Millar pressure tip catheter. Therefore the Millar pressure tip catheter was placed in the left ventricle and left ventricular pressure was recorded for off-line analysis.
Regional myocardial function: 24 hours after induction of ischemia, sternotomy was performed and ultrasonic crystals were placed subendocardial into the area at risk, the infracted area as well as into the Cx perfusion area in a standardized manner. Subendocardial segment shortening (SES) was assessed under resting heart rate as well as at 120 and 150 beats/min atrial pacing (for 1 min/each).
Infarct size and local inflammation: For assessment of infarct size methylene blue was injected in the left ventricle for negative staining of the AAR and tetrazolium red was applied into the LAD for viability staining in the infracted area. Thereafter, left ventricle was cut into slices (5 mm thick), and subjected to digital photography. Planimetry of different slices was conducted via ImageJ for assessment of infarct size in % of AAR. Tissue samples from infarct, area at risk and non-ischemic control were harvested for leukocyte recruitment. Myeloperoxidase assays were performed as previously described (Kupatt et al., 2005).

[2] = test system: cardiomyocytes; assay: TUNEL assay on hearts after coronary ligation; format: in vivo, mouse; conditions: 24 h after ligation
Source text: Animals and Surgical procedures. Mice: Myocardial infarctions were produced in seventy C57BL/6J male mice at 16 weeks of age (25-30 g) by ligation of the left anterior descending (LAD) coronary artery as described (Garner et al., 2003). All animal protocols were reviewed and approved by the University of Texas Southwestern Medical School Institutional Animal Care Advisory Committee and were in compliance with the rules governing animal use as published by the NIH. Mice were sedated in an isoflurane chamber (5%) for 60 seconds until self-designed coaxial mask could be safely applied. The mask supplied continuous isoflurane (2.0%) and oxygen (98.0%) under positive pressure from a Harvard small animal respirator throughout the procedures. […] Effective doses of the peptides were calculated based on optimal in vitro cell migration effect and on biodistribution calculations of full length TB4 (Mora et al., 1997). […]
Immunohistochemistry. Adult mouse cardiac tissue was fixed in 4% paraformaldehyde and sections were analyzed by immunohistochemistry. […] Number of sm a-actin positive capillaries and Wt-1 positive cells were counted at the infarction border zone in high power photographs at all levels of the sections in three peptide, TB4 and PBS treated hearts respectively.

With Thymosin β4 [TB4] the “left ventricular end-diastolic pressure” value ([1]; after ischemia and 24 h reperfusion) was 10.4+/−0.8 mmHg, the “regional myocardial function in the infarcted area” value ([1]; at rest and under increased heart rate (atrial pacing)) was “significantly improved” and the infarct size ([1]; in % of AAR, 60 min occlusion, retroinfusion at onset of reperfusion, n=5) was 35+/−3%. The “post-ischemic inflammatory leukocyte influx (myeloperoxidase activity)” value ([1]; ischemic heart tissue after retroinfusion) was “reduced post-ischemic inflammatory leukocyte influx” and the “TUNEL positive cardiomyocytes (myocardial cell death)” value [2] was “significant decrease of myocardial cell death”.
